How the values were obtained:
[1] = system: reversibly immortalized mouse beta (R7T1) cells; experiment: R7T1 proliferation assay (CellTiter Glo); type: cell-based; conditions: growth-arrested R7T1 cells
Method: Reversibly immortalized mouse β-cells (R7T1)[49] express SV40 T antigen under a tetracycline inducible promoter. R7T1 cells were expanded in the presence of doxycycline. For experiments on proliferation, R7T1 cells were growth arrested by removal of doxycycline for 2 days and plated into 384-well plates at a density of 3,000 cells per well in growth medium. β-Cell proliferation was assessed using CellTiter Glo (Promega) after 4 days. Fold increase in cell number was calculated by normalizing compound-treated wells to the median of DMSO-treated wells.

[2] = system: intact human islets; experiment: Intact human islet assay (Ki67, cell numbers); type: cell-based; conditions: 8 days
Method: Rat or human β-cell proliferation assays were performed using dissociated primary rat or human islets. Islets were treated with the indicated compounds in the presence of EdU for 4 days before fixing and staining. EdU incorporation was measured by click reaction with AlexaFluor-647-azide (Invitrogen). For intact islet assays, primary human islets were treated for 7 or 8 days (as indicated in the legend). Rat dissociated islets were cultured in RPMI medium containing 10% FBS and human dissociated islets were cultured in PIM-S media (Prodo laboratories) with 10% human […].

[3] = system: human islets in STZ-treated NSG mice; experiment: Human islets transplanted under kidney capsule of STZ-treated NSG mice, oral dosing; type: in vivo, mouse; conditions: 50 mg kg^−1, twice daily, 9 days
Text: All animal care and experimental procedures were approved by the Institutional Animal Care and Use Committee (IACUC) of Genomics Institute of the Novartis Research Foundation and strictly followed the NIH guidelines for humane treatment of animals. The double transgenic RIP-DTA male mice (Tg(Ins2-rtTA)2Efr Tg(teto-DTA)1Gfi/J; Jackson Laboratory, Stock # 008755) were bred in-house and were maintained in a 12-h light/12-dark cycle environment with controlled temperature, humidity and ventilation. Animals were housed 3–5 mice per cage and had free access to water and standard laboratory chow. […] Blood glucose levels were measured from tail-vein blood with a glucometer (AlphaTrak2 Monitoring System; Abbott). […] Body weight and blood glucose were monitored every third day. […] Pancreatic insulin content was determined by MSD (meso-scale discovery). […] Baseline body weight and tail-vein blood glucose measurements were recorded before diabetic induction. To obtain a diabetic state, animals were given an intraperitoneal dose of STZ (135 mg kg^−1) and blood glucose was monitored before transplant. […]
Human islets (obtained commercially from Prodo Laboratories Inc.) were recovered for 48 h before transplantation. […] While mice were prepared, islets were counted according to IEQs and prepared into islet suspension of 800 IEQ/mouse in cold PBS. […]

[4] = target: T1, PDGFRb (Homo sapiens, UniProt P09619); experiment: Kinase profiling; type: biochemical; conditions: read-out: Percent inhibition, PDGFRb; for inhibition at 1 µM: Conc 1000 nM
T1 construct: purchased Ambit (KINOMEscan)
T1 sequence (P09619 33-1106): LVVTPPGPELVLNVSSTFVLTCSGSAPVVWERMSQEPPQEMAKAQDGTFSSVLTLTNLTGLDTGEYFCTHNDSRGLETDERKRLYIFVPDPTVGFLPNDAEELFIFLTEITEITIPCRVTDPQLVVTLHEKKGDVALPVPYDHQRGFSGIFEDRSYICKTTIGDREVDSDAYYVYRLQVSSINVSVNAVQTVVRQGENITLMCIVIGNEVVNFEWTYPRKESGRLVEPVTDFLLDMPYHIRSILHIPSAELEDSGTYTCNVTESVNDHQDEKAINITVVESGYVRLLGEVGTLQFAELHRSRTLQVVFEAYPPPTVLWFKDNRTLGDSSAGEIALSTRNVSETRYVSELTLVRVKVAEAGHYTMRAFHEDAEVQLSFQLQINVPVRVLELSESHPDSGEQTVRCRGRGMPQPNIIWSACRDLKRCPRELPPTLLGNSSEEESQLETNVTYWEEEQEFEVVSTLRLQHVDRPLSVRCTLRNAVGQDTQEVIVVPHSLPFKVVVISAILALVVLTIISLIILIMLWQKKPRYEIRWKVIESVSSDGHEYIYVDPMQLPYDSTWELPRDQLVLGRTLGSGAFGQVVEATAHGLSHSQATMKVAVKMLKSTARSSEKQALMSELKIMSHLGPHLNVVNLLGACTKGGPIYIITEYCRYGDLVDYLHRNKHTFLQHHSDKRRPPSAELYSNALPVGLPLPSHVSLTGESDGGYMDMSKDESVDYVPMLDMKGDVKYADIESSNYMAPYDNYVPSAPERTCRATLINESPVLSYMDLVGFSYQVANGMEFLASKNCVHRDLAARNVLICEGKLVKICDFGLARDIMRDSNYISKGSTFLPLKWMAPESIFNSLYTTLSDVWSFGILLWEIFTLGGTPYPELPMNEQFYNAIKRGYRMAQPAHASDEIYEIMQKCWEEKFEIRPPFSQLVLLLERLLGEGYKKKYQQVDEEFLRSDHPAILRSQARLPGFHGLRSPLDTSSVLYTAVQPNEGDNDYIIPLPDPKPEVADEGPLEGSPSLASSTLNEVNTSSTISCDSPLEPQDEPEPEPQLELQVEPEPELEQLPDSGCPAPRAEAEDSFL
Text: (§1) ; Fig. 5a; Supplementary Table 1). We focused on Dyrk1a because other kinases inhibited by aminopyrazine compounds were not highly expressed in β-cells and because Dyrk1a was known to inhibit the NFAT pathway that was previously implicated in β-cell proliferation. We used molecular modelling to dock the aminopyrazine compounds into the published structure of Dyrk1a (protein databank accession code 2vx3.pdb; Fig. 5b).

[5] = target: T2, cRAF (Homo sapiens, UniProt P04049); experiment: Kinase profiling; type: biochemical; conditions: Conc 1000 nM; read-out: Percent inhibition, cRAF
T2 construct: purchased Ambit KINOMEscan
T2 sequence (P04049 whole entry): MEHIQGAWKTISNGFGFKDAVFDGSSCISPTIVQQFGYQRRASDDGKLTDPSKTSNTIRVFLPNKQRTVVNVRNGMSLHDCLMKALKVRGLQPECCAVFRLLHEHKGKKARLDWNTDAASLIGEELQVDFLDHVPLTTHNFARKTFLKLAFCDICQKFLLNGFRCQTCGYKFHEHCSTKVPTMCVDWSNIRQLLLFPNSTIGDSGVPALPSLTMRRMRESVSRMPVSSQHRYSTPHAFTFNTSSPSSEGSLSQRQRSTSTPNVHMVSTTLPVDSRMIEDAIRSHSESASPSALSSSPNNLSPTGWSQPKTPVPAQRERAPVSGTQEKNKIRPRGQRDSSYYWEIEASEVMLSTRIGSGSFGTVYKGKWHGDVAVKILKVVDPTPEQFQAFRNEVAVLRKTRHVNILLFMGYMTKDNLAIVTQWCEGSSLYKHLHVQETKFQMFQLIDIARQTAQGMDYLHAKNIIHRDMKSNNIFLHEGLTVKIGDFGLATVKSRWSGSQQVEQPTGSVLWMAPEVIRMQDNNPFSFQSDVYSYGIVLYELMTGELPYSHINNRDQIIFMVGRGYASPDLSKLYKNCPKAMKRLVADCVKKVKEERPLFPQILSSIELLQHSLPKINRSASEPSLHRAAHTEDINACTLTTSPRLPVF
Text: as §1

[6] = system: human islets transplanted into STZ-treated NOD-SCID mice; experiment: Transplantation of compound-treated human islets into STZ-treated NOD-SCID mice; type: in vivo, mouse; conditions: islets treated in vitro before transplantation
Text: Figure 2 AP compounds expand human islets ex vivo with retention of function after transplantation. […] (a) Immunofluorescence for insulin, Ki67 and DAPI on DMSO or GNF4877-treated human intact islets (scale bar, 50 μm). (b) Quantification of Ki67+ as a percent of total insulin+ cells (n=3). […] Data are shown as mean±s.d. (six mice per group; transplanted with islets from a single human donor). […] Data shown as mean±s.d.; (n=6 mice/group, *P<0.05, Student's t-test).
We tested whether aminopyrazine treatment of islets compromised their ability to secrete insulin in vitro and, after transplantation, in vivo.

[7] = system: β-catenin nuclear localization in primary rat islets; experiment: β-Catenin nuclear translocation; type: cell-based
Method: At the end of the treatment, cells were fixed with 4% paraformaldehyde, blocked and permeabilized, and stained by standard immunofluorescence techniques for β-catenin (Cell signaling, #9562L; dilution 1:500), NFATc1 (Santa Cruz, rabbit polyclonal, SC-7294; dilution 1:200) or NFAT3c (Santa Cruz, SC-8321; dilution 1:200) and nuclear DNA was stained with DAPI (Molecular Probes; dilution 1:1,000). EdU incorporation was measured by click reaction with AlexaFluor-647-azide (Invitrogen). Plates were imaged with confocal microscope and analysed by Metamorph (Molecular Devices).

[8] = target: T3, Dyrk1a (Homo sapiens, UniProt Q13627); experiment: Kinase profiling; type: biochemical; conditions: Conc 1000 nM; read-out: Percent inhibition, DYRK1a
T3 construct: purchased Ambit KINOMEscan

[9] = target: T4, GSK3beta (Homo sapiens, UniProt P49841); experiment: Kinase profiling; type: biochemical; conditions: Conc 1000 nM; read-out: Percent inhibition, GSK3beta
T4 construct: purchased Ambit KINOMEscan
T4 sequence (P49841 whole entry): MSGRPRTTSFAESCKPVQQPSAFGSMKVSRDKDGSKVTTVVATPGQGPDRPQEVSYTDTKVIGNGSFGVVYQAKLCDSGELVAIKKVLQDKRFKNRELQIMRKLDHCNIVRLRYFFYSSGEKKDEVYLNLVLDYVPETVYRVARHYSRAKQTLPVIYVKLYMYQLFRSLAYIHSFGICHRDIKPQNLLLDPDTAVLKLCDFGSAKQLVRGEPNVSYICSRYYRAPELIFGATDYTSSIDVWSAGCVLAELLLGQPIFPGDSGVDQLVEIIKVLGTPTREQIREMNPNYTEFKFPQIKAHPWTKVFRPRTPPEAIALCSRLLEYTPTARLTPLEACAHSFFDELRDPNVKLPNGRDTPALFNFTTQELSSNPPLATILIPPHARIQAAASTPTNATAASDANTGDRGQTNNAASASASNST

Row | inhibition at 1 µM [8] [%] | inhibition at 1 µM [9] [%] | SMILES | EC50 [1] [nM] | increase in the number of Ki67-positive insulin-positive cells [2] [fold] | glucose control (fed glucose levels) [3] | inhibition at 0.2 µM ([4]; Conc 200 nM) [%] | inhibition at 1 µM [4] [%] | inhibition at 1 µM [5] [%] | euglycemia after transplantation of treated islets [6] | β-catenin nuclear translocation [7]
1 |  |  | CC(C)Oc1ccc(F)c(-c2cnc(N)c(C(=O)Nc3cnccc3N3CCC[C@@H](C(=O)O)C3)n2)c1 [GNF4877] | 660 | 20 | trend towards improved glucose control | 0 | 94 | 18 |  | 
2 | 98 | 99 | Nc1ncc(-c2ccccc2)nc1C(=O)Nc1cnccc1N1CCC(C(=O)O)CC1 [GNF7156] | 2200 |  |  |  | 94 | 17 | maintained the ability to preserve euglycemia | induced β-catenin nuclear translocation

Source: paper PMC4639830, “Inhibition of DYRK1A and GSK3B induces human β-cell proliferation” (Nature Communications, 2015)
